We go through one molecule from patent publication US7863287B2, “Compositions of non-steroidal anti-inflammatory drugs, decongestants and anti-histamines” (Wyeth LLC, priority 2002, dated 2011).

Structures are written as SMILES. Structures can show the parent of a compound that is named as a salt.

This test concerns seasonal allergic rhinitis. As to the kind of experiment: Multicenter, placebo-controlled, double-blind, randomized multiple-dose efficacy trial in seasonal allergic rhinitis. The class given is in vivo, human.

Source text: The study was a multicenter, outpatient, multiple-dose, placebo controlled, double-blind, double-dummy, parallel-group, randomized trial.
The study enrolled 1070 appropriately selected patients who were at least 12 years of age and included both males and females. […] Qualified subjects were required to undergo a 3-30 day run-in phase to establish that the patients had sufficiently severe allergy symptoms, during which time they reflectively assessed the severity of the following symptoms in the morning (upon waking) and in the evening (prior to bedtime): nasal congestion, sneezing, rhinorrhea, itchy nose/throat/palate; itchy/watery/red eyes and headache/facial pain/pressure/discomfort. The severity of each symptom was assessed using a 4-point categorical scale where 0=none (no symptom present), 1=mild (minimal awareness of symptom, symptom easily tolerated), 2=moderate (symptom present and bothersome, but tolerable) and 3=severe (symptom hard to tolerate; may cause interference with daily activities/sleeping). […] Patients were also assessed for allergy associated pain and were asked if they were in pain. […]

Regarding `CN(C)CCC(c1ccc(Cl)cc1)c1ccccn1` (stereo not shown) [chlorpheniramine, chlorpheniramine maleate], the “relief of histamine-mediated symptoms, result in words” value is “more effective than the placebo”.
